Data taken from patent publication US10995260B2, “Methods for determining an optimal surfactant structure for oil recovery” (University of Wyoming, priority 2017, dated 2021).

Assay: Dynamic interfacial tension of surfactant solution/crude oil (rising/captive bubble tensiometry)
Format: physicochemical
Details: time for IFT to reach half of its value between γo and γm; 0.1% wt surfactant, municipal water/crude oil, ambient conditions
Method: Interfacial tension tests were carried out in accordance with the invention. Dynamic IFT and contact angles were measured using rising/captive bubble tensiometry enhanced by image acquisition with a high-resolution Charged Coupled Device (CCD) digital camera and apochromatically-corrected lens. The apparatus includes a Hastelloy measurement cell, a Hastelloy dual-cylinder pulse-free Quizix pump (to provide constant flow rate and pressure), a temperature control module, a data acquisition computer, an oven, and an in-line density meter (Anton Paar DMA HPM) to measure the density of fluids at actual experimental conditions. The system tolerates reservoir conditions with pressures and temperatures up to 10,000 psi and 150° C., respectively (V. Mirchi, S. Saraji, L. Goual, M. Piri, Dynamic interfacial tension and wettability of shale in the presence of surfactants at reservoir conditions, Fuel, vol. 148, pp. 127-138, 2015).
For IFT measurements, after establishing ambient (e.g., 14.7 psi and 20° C.) or reservoir conditions (e.g., 6840 psi and 120° C.) in a cell saturated with brine, a bubble of crude oil was created inside the measurement cell through a needle (0.3-1.6 mm outside diameter). Images of oil bubbles were captured at 5-second intervals to measure dynamic interfacial tension. IFT values were obtained by fitting the drop profile to the Young-Laplace equation using Axisymetric Drop Shape Analysis (ADSA) software.
A series of dynamic IFT measurements with municipal water and crude oil were performed at ambient conditions to examine the surface activity of selected surfactants. FIGS. 5A-5F present dynamic IFT results of a homologous series of nonionic surfactant solutions with 0.1% wt concentration, which is above the critical micelle concentration (CMC) of all the surfactants studied. The size of the hydrophobic and hydrophilic parts of the surfactants were altered independently and their impact on oil/brine interfacial tension was investigated.
In addition, the dynamic IFT of certain surfactants was measured at reservoir conditions. In particular, the impact of elevated temperatures and pressures on the performance of these surfactants was evaluated. IFT values of crude oil and surfactant solutions were measured at 6840 psi and 120° C.
As shown by Equation 1, three typical regions of dynamic IFT reduction exist: (I) induction region, (II) rapid fall region, and (III) mesoequilibrium region (X. Y. Hua, M. J. Rosen, Dynamic surface tension of aqueous surfactant solutions: I. Basic parameters, Journal of Colloid and Interface Science, vol. 124, no. 2, pp. 652-659, 1988). log(γ0−γt)−log(γt−γm)=n log t−n log t* (1)
In Equation 1, γt is the IFT of surfactant solution at time t, γm is the mesoequilibrium interfacial tension (when γt is almost stabilized), γo is the IFT in the absence of surfactant, and t* is the required time for IFT to reach half of its value between γo and γm. The value of n is a constant number related to the structure of surfactants and correlates to the difference between surfactants' adsorption and desorption. Increasing nonionic surfactants' polyoxyethylene chain length reduces the value of n (T. Gao, M. J. Rosen, Dynamic surface tension of aqueous surfactant solutions: 7. physical significance of dynamic parameters and the induction period, Journal of Colloid and Interface Science, vol. 172, no. 1, pp. 242-248, 1995).

## CH3(CH2)8-10(OC2H4)2.5OH [CH2 8-10, EO 2.5]
  t*: 16.5 min

## CH3(CH2)8-10(OC2H4)6-6.5OH [CH2 8-10, EO 6]
  t*: 12.3 min

## CH3(CH2)8-10(OC2H4)8.3OH [CH2 8-10, EO 8]
  t*: 11.6 min

## CH3(CH2)11-13(OC2H4)8.2OH [CH2 11-14, EO 8.2]
  t*: 7.83 min

## CH3(CH2)11-14(OC2H4)3OH [CH2 11-14, EO 3]
  t*: 23 min

## CH3(CH2)11-14(OC2H4)7.25OH [CH2 11-14, EO 7.25]
  t*: 9.3 min
